Source: patent US11813239B2, “Compositions and methods for improving cardiac structure and/or function” (Wisconsin Alumni Research Foundation, priority 2020, dated 2023)
“Also recorded” adds a separate entry of the source.

Columns and labels:
[1] = tested on: adult mouse heart following myocardial infarction; test: Echocardiography after adult MI, malonate treatment starting 1-week post-MI; conditions: for % EF (Ejection Fraction) / % FS (Fractional Shortening) / LV Mass (Left Ventricular Mass, Anatomical Weight) / LV Vol; d (Left Ventricular Volume; diastole) / LV Vol; s (Left Ventricular Volume; systole) / LVAWD (Left Ventricle Anterior Wall Thickness Diastole) / LVAWS (Left Ventricle Anterior Wall Thickness Systole) / LVIDD (Left Ventricle Internal Diameter Diastole) / LVIDS (Left Ventricle Internal Diameter Systole) / LVPWD (Left Ventricle Posterior Wall Thickness Diastole) / LVPWS (Left Ventricle Posterior Wall Thickness Systole): adult mice, mean ± SE
Source text: Adult male mice (8-week-old) were subjected to MI by ligation of the proximal aspect of the LAD coronary artery. In brief, mice were anaesthetized using 3% isoflurane, then mice were intubated with PE50 tubing and placed on a mouse ventilator at 120-130 breaths per minute with a stroke volume of 150 microliters and maintained on 2% isoflurane. A left lateral incision through the fourth intercostal space was made to expose the heart. After visualizing the left coronary artery, 7-0 suture was placed through the myocardium in the anterolateral wall and secured as previously describer^17,18. Coronary artery entrapment was confirmed by observing blanching of the distal circulation (ventricular apex). ECG was used to confirm MI by noting ST segment changes. The lungs were over inflated, and the ribs and muscle layers were closed by absorbable sutures. The skin is closed by additional suturing using 6-0 nylon. The mouse was recovered from the anesthesia and extubated.
Saline was used as a vehicle control for all experiments. […] Adult mice were injected intraperitoneally daily with either saline or 100 mg/kg dimethyl malonate post-MI for 2 or 4 weeks.
Transthoracic echocardiography was performed by using a Visual Sonics 770 ultrasonograph with a 25-MHz transducer (Visual Sonics, Toronto) as described previously^19. Mice were lightly anesthetized with 1% isoflurane and maintained on a heated platform. Two-dimensionally guided M-mode images from a parasternal long axis (PLAX) of the left ventricle (LV) were acquired at the tip of the papillary muscles. Wall thickness and chamber diameters were measured in both diastole and systole. Fractional shortening was calculated as (LVDd−LVDs)/LVDd×100, where LVDd is LV diameter in diastole and LVDs is LV diameter in systole. Ejection fraction was calculated as [(7.0/(2.4+LVDd)(LVDd)^3−(7.0/(2.4+LVDs)(LVDs)^3/(7.0/(2.4+LVDd)(LVDd)^3×100 and LV mass was calculated by using the formula [1.05×((Posterior Walldiastole+Anterior Walldiastole+LVDd)^3−(LVDd)^3)]. All parameters were measured over at least three consecutive cycles.
To determine whether SDH inhibitors can promote a regenerative response following the establishment of infarction, we performed MI in 8-week-old mice and started malonate treatment at 1-week post-MI (FIG. 20A). […] Mice were then randomized and treated with saline or malonate for a period of 4 weeks, and hearts were harvested at 6 weeks post-MI (FIG. 20A).

[2] = tested on: adult cardiomyocytes; test: Histology after adult MI (TTC, TUNEL, pH3, Aurora B, BrdU, nucleation, γH2AX, trichrome, WGA, coronary casting, PECAM/α-SMA); format: in vivo, mouse
[3] = MI, 2 WPMI, dimethyl malonate 100 mg/kg daily for 4 weeks starting 1 WPMI
[4] = MI, 3 WPMI, dimethyl malonate 100 mg/kg daily for 4 weeks starting 1 WPMI
[5] = MI, 4 WPMI, dimethyl malonate 100 mg/kg daily for 4 weeks starting 1 WPMI
[6] = MI, 6 WPMI, dimethyl malonate 100 mg/kg daily for 4 weeks starting 1 WPMI
[7] = malonate group, MI, 1 WPMI (before start of dosing)
[8] = malonate group, Pre (before MI and dosing)
[9] = dimethyl malonate 100 mg/kg daily for 2 weeks, 28 days post-MI
[10] = dimethyl malonate 100 mg/kg daily for 2 weeks, 28 days post-MI, vs controls
[11] = dimethyl malonate 100 mg/kg daily, 14 days post-MI

COC(=O)CC(=O)OC [Malonate, dimethyl malonate]
cardiac function by echocardiography ([1]; adult MI, malonate for 4 weeks starting 1-week post-MI, 4-weeks and 6-weeks post-MI): significant increase in cardiac function
% EF (Ejection Fraction) [1, 3]: 34.537 ± 4.592%
% FS (Fractional Shortening) [1, 3]: 16.507 ± 2.337%
LV Mass (Left Ventricular Mass, Anatomical Weight) [1, 3]: 118.559 ± 20.724 mg
LV Vol; d (Left Ventricular Volume; diastole) [1, 3]: 97.776 ± 23.854 µL
LV Vol; s (Left Ventricular Volume; systole) [1, 3]: 69.099 ± 20.899 µL
LVAWD (Left Ventricle Anterior Wall Thickness Diastole) [1, 3]: 0.698 ± 0.021 mm
LVAWS (Left Ventricle Anterior Wall Thickness Systole) [1, 3]: 0.833 ± 0.016 mm
LVIDD (Left Ventricle Internal Diameter Diastole) [1, 3]: 4.458 ± 0.467 mm
LVIDS (Left Ventricle Internal Diameter Systole) [1, 3]: 3.772 ± 0.497 mm
LVPWD (Left Ventricle Posterior Wall Thickness Diastole) [1, 3]: 0.671 ± 0.023 mm
LVPWS (Left Ventricle Posterior Wall Thickness Systole) [1, 3]: 0.814 ± 0.012 mm
% EF (Ejection Fraction) [1, 4]: 38.518 ± 3.865%
% FS (Fractional Shortening) [1, 4]: 18.642 ± 2.058%
LV Mass (Left Ventricular Mass, Anatomical Weight) [1, 4]: 90.090 ± 11.827 mg
LV Vol; d (Left Ventricular Volume; diastole) [1, 4]: 78.984 ± 13.627 µL
LV Vol; s (Left Ventricular Volume; systole) [1, 4]: 50.781 ± 11.724 µL
LVAWD (Left Ventricle Anterior Wall Thickness Diastole) [1, 4]: 0.623 ± 0.024 mm
LVAWS (Left Ventricle Anterior Wall Thickness Systole) [1, 4]: 0.791 ± 0.028 mm
LVIDD (Left Ventricle Internal Diameter Diastole) [1, 4]: 4.139 ± 0.296 mm
LVIDS (Left Ventricle Internal Diameter Systole) [1, 4]: 3.393 ± 0.326 mm
LVPWD (Left Ventricle Posterior Wall Thickness Diastole) [1, 4]: 0.613 ± 0.017 mm
LVPWS (Left Ventricle Posterior Wall Thickness Systole) [1, 4]: 0.764 ± 0.018 mm
% EF (Ejection Fraction) [1, 5]: 45.375 ± 5.597%
% FS (Fractional Shortening) [1, 5]: 24.529 ± 3.624%
LV Mass (Left Ventricular Mass, Anatomical Weight) [1, 5]: 90.726 ± 13.717 mg
LV Vol; d (Left Ventricular Volume; diastole) [1, 5]: 70.697 ± 15.089 µL
LV Vol; s (Left Ventricular Volume; systole) [1, 5]: 47.342 ± 10.954 µL
LVAWD (Left Ventricle Anterior Wall Thickness Diastole) [1, 5]: 0.687 ± 0.039 mm
LVAWS (Left Ventricle Anterior Wall Thickness Systole) [1, 5]: 0.809 ± 0.051 mm
LVIDD (Left Ventricle Internal Diameter Diastole) [1, 5]: 4.136 ± 0.349 mm
LVIDS (Left Ventricle Internal Diameter Systole) [1, 5]: 2.958 ± 0.419 mm
LVPWD (Left Ventricle Posterior Wall Thickness Diastole) [1, 5]: 0.962 ± 0.287 mm
LVPWS (Left Ventricle Posterior Wall Thickness Systole) [1, 5]: 1.015 ± 0.214 mm
% EF (Ejection Fraction) [1, 6]: 47.208 ± 4.087%
% FS (Fractional Shortening) [1, 6]: 23.535 ± 2.509%
LV Mass (Left Ventricular Mass, Anatomical Weight) [1, 6]: 107.845 ± 11.076 mg
LV Vol; d (Left Ventricular Volume; diastole) [1, 6]: 75.865 ± 9.652 µL
LV Vol; s (Left Ventricular Volume; systole) [1, 6]: 40.253 ± 6.696 µL
LVAWD (Left Ventricle Anterior Wall Thickness Diastole) [1, 6]: 0.718 ± 0.011 mm
LVAWS (Left Ventricle Anterior Wall Thickness Systole) [1, 6]: 0.831 ± 0.019 mm
LVIDD (Left Ventricle Internal Diameter Diastole) [1, 6]: 4.113 ± 0.228 mm
LVIDS (Left Ventricle Internal Diameter Systole) [1, 6]: 3.146 ± 0.214 mm
LVPWD (Left Ventricle Posterior Wall Thickness Diastole) [1, 6]: 0.738 ± 0.018 mm
LVPWS (Left Ventricle Posterior Wall Thickness Systole) [1, 6]: 0.846 ± 0.017 mm
% EF (Ejection Fraction) [1, 7]: 35.760 ± 3.523%
% FS (Fractional Shortening) [1, 7]: 17.077 ± 1.873%
LV Mass (Left Ventricular Mass, Anatomical Weight) [1, 7]: 105.118 ± 13.726 mg
LV Vol; d (Left Ventricular Volume; diastole) [1, 7]: 87.566 ± 16.492 µL
LV Vol; s (Left Ventricular Volume; systole) [1, 7]: 57.371 ± 11.845 µL
LVAWD (Left Ventricle Anterior Wall Thickness Diastole) [1, 7]: 0.651 ± 0.018 mm
LVAWS (Left Ventricle Anterior Wall Thickness Systole) [1, 7]: 0.788 ± 0.016 mm
LVIDD (Left Ventricle Internal Diameter Diastole) [1, 7]: 4.329 ± 0.343 mm
LVIDS (Left Ventricle Internal Diameter Systole) [1, 7]: 3.603 ± 0.326 mm
LVPWD (Left Ventricle Posterior Wall Thickness Diastole) [1, 7]: 0.665 ± 0.033 mm
LVPWS (Left Ventricle Posterior Wall Thickness Systole) [1, 7]: 0.838 ± 0.025 mm
% EF (Ejection Fraction) [1, 8]: 69.832 ± 3.238%
% FS (Fractional Shortening) [1, 8]: 38.447 ± 2.452%
LV Mass (Left Ventricular Mass, Anatomical Weight) [1, 8]: 59.124 ± 6.101 mg
LV Vol; d (Left Ventricular Volume; diastole) [1, 8]: 32.452 ± 4.967 µL
LV Vol; s (Left Ventricular Volume; systole) [1, 8]: 10.208 ± 2.260 µL
LVAWD (Left Ventricle Anterior Wall Thickness Diastole) [1, 8]: 0.704 ± 0.023 mm
LVAWS (Left Ventricle Anterior Wall Thickness Systole) [1, 8]: 0.838 ± 0.024 mm
LVIDD (Left Ventricle Internal Diameter Diastole) [1, 8]: 2.872 ± 0.174 mm
LVIDS (Left Ventricle Internal Diameter Systole) [1, 8]: 1.779 ± 0.158 mm
LVPWD (Left Ventricle Posterior Wall Thickness Diastole) [1, 8]: 0.717 ± 0.020 mm
LVPWS (Left Ventricle Posterior Wall Thickness Systole) [1, 8]: 0.829 ± 0.017 mm
fibrosis (trichrome staining, quantification) ([2]; dimethyl malonate 100 mg/kg daily for 2 weeks, 14 days post-MI, vs controls, difference was not significant): trend for reduction in fibrosis
capillary density and vascular smooth muscle cells in the infarct zone (PECAM, α-SMA) [2, 9]: significant increase in capillary density and vascular smooth muscle cells
scar size (quantification of fibrosis) [2, 9]: significant reduction of scar size
cardiomyocyte size (WGA staining) [2, 10]: significant reduction in cardiomyocyte size
coronary artery formation / revascularization of the infarct zone (coronary casting) [2, 10]: Re-vascularization in the infarcted zone was also induced; also recorded: remarkable formation of coronary arteries below the ligature site
heart weight to body weight ratios ([2]; dimethyl malonate 100 mg/kg daily for 2 weeks, 28 days post-MI, vs saline): No significant differences
cardiac structure (trichrome staining) ([2]; dimethyl malonate 100 mg/kg daily for 2 weeks, 28 days post-MI, vs saline controls): complete restoration of the myocardium with minimal fibrosis; also recorded: remarkable restoration of the myocardium with minimal fibrosis
number of apoptotic cardiomyocytes (TUNEL staining) ([2]; dimethyl malonate 100 mg/kg daily, 3- or 7-days post-MI, vs saline): no difference in the number of apoptotic cardiomyocytes
BrdU incorporation in cardiomyocytes [2, 11]: significant increase in 5-bromodeoxyuridine (BrdU) incorporation
number of binucleated cardiomyocytes [2, 11]: significant decrease in the number of binucleated cardiomyocytes
number of mononucleated cardiomyocytes [2, 11]: remarkable increase in the number of mononucleated cardiomyocytes
cardiomyocytes with γH2AX foci (DNA damage) ([2]; dimethyl malonate 100 mg/kg daily, vs controls): significant decrease in the number of cardiomyocytes with γH2AX foci
non-viable myocardium, myocardial necrosis (TTC viability stain) ([2]; dimethyl malonate 100 mg/kg from within an hour post-MI, daily, 3 days post-MI, vs saline): no significant difference
gross morphology of the heart ([2]; dimethyl malonate 100 mg/kg intraperitoneally for two weeks, 28 days post-MI, vs controls): more muscularized ventricle
